Test results from ChEMBL document CHEMBL1128198, “New drug developments for opportunistic infections in immunosuppressed patients: Pneumocystis carinii” (J Med Chem, 1995).

Experiments:
[1] = Ratio for IC50 of mammalian DHFR to IC50 of Pneumocystis carinii DHFR
Dihydrofolate reductase [2] = target: T1, Dihydrofolate reductase (Pneumocystis carinii, UniProt P16184)
T1 sequence (P16184 whole entry): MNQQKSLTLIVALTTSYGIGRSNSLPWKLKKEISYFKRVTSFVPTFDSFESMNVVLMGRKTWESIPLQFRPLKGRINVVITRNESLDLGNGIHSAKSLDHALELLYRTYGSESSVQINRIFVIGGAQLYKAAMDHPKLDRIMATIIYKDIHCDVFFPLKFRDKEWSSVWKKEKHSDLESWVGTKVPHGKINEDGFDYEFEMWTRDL
Description: Binding affinity was reported with purified recombinant Pneumocystis carinii Dihydrofolate reductase

Dihydrofolate reductase [3] = target: T1, Dihydrofolate reductase; remark: listed apart in the source
Description: Inhibitory activity against dihydrofolate reductase in Pneumocystis carinii at 37 centigrade.

Pneumocystis carinii [4] = assay: Minimal effective concentration inhibiting growth of Pneumocystis carinii was reported.; format: functional; settings: read-out: MEC
Dihydrofolate reductase [5] = target: T2, Dihydrofolate reductase (Rattus norvegicus, UniProt Q920D2); assay: Inhibitory activity against dihydrofolate reductase in rat liver.
T2 sequence (Q920D2 whole entry): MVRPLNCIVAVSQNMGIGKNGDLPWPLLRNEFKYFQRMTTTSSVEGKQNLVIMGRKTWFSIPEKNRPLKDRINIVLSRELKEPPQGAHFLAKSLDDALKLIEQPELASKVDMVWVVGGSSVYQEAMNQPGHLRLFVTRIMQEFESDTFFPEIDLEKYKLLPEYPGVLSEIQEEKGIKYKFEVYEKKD

Dihydrofolate reductase [6] = target: T1, Dihydrofolate reductase; remark: listed apart in the source
Description: Inhibitory activity was determined against dihydrofolate reductase in Pneumocystis carinii.

Dihydrofolate reductase [7] = target: T1, Dihydrofolate reductase; remark: listed apart in the source
Rattus norvegicus [8] = assay: Evaluated for effectiveness at 10 mg/kg reported as relative to pentamidine in rat; format: functional
Rattus norvegicus [9] = species on record: Rattus norvegicus; assay: Toxicity was reported in rat.; format: organism-based; settings: in vivo
Pneumocystis carinii [10] = assay: Pneumocystis carinii cysts per gram of lung tissue was determined in Pneumocystis carinii expressed as perscent of saline treated- control; format: functional; parameters: concentration or dose not given beside the values
Pneumocystis carinii [11] = assay: Toxicity in Pneumocystis carinii Strong activity; format: organism-based; settings: in vivo
Rattus norvegicus [12] = species on record: Rattus norvegicus; assay: toxicity was reported in rat.; format: organism-based; settings: in vivo
Rattus norvegicus [13] = species on record: Rattus norvegicus; assay: Toxicity was reported in rat; Toxic; format: organism-based; settings: in vivo
Dihydrofolate reductase [14] = target: T2, Dihydrofolate reductase; assay: Inhibitory activity against dihydrofolate reductase in rat.
[15] = Inhibitory activity of Pneumocystis carinii growth culture.
Rattus norvegicus [16] = species on record: Rattus norvegicus; assay: Toxicity was reported in rat; Toxic,; format: organism-based; settings: in vivo

CCOc1cc(Cc2cnc(N)nc2N)cc(OCC)c1-n1cccc1 [EPIROPRIM]
Selectivity [1]: 44
Ki (Dihydrofolate reductase [2]): 3.4 nM
IC50 (Dihydrofolate reductase [3]): 3 µM

COc1cc(C)c2c(Oc3cccc(C(F)(F)F)c3)c(OC)cc(NC(C)CCCN)c2n1 (stereo not drawn) [TAFENOQUINE]
minimal effective concentration (Pneumocystis carinii [4]): 0.2 µM

CC1(C)N=C(N)N=C(N)N1c1ccc(Cl)cc1 [CYCLOGUANIL]
IC50 (Dihydrofolate reductase [5]): 110 nM
Ki (Dihydrofolate reductase [2]): 23.3 nM
IC50 (Dihydrofolate reductase [3]): 0.45 µM

Nc1ccc(S(=O)(=O)c2ccc(N)cc2)cc1 [DAPSONE]
IC50 (Dihydrofolate reductase [6]): 1500 nM

Cc1cc(NS(=O)(=O)c2ccc(N)cc2)no1 [SULFAMETHOXAZOLE]
IC50 (Dihydrofolate reductase [7]): 100 nM

c1cc(C2=NCCN2)ccc1OCOc1ccc(C2=NCCN2)cc1
Effectiveness (Rattus norvegicus [8]): 2.4
Toxicity (Rattus norvegicus [9]): 0

CCc1nc(N)nc(N)c1-c1ccc(Cl)c(NCN(C)C)c1
IC50 (Dihydrofolate reductase [6]): 10600 nM

COCCOc1c(OC)cc(Cc2cnc(N)nc2N)cc1OC [TETROXOPRIM]
IC50 (Dihydrofolate reductase [3]): > 63 µM

c1cc2[nH]c(CCCc3nc4cc(C5=NCCN5)ccc4[nH]3)nc2cc1C1=NCCN1
Lung cyst count, % of saline control (Pneumocystis carinii [10]): 4%

c1cc(OCCOc2cccc(C3=NCCN3)c2)cc(C2=NCCN2)c1
Effectiveness (Rattus norvegicus [8]): 0.6
Toxicity (Rattus norvegicus [9]): Toxic

Nc1cc(N)c2nc(CSc3ccccc3)cnc2c1
IC50 (Dihydrofolate reductase [6]): 9500 nM

Nc1nc(N)c2cc(Sc3cccc(C(F)(F)F)c3)sc2n1
IC50 (Dihydrofolate reductase [6]): 120000 nM

N=C(N)c1ccc2[nH]c(CCCCc3nc4cc(C(=N)N)ccc4[nH]3)nc2c1
Toxicity (Pneumocystis carinii [11]): Strong activity
Lung cyst count, % of saline control (Pneumocystis carinii [10]): 0.3%

N=C(N)c1ccc(OCCCCOc2ccc(C(=N)N)cc2)cc1
Effectiveness (Rattus norvegicus [8]): 2.2
Toxicity (Rattus norvegicus [12]): 0

COc1cc(C(=N)N)ccc1OCOc1ccc(C(=N)N)cc1OC
Effectiveness (Rattus norvegicus [8]): 1.8
Toxicity (Rattus norvegicus [9]): 0

CCN(CC)CCCCCCNc1cc(OC)cc2c(C)ccnc12 [SITAMAQUINE]
minimal effective concentration (Pneumocystis carinii [4]): 2.3 µM

CCc1nc(N)nc(N)c1-c1ccc(Cl)c([N+]#N)c1
IC50 (Dihydrofolate reductase [6]): 190 nM

c1cc2[nH]c(CCCCc3nc4cc(C5=NCCN5)ccc4[nH]3)nc2cc1C1=NCCN1
Toxicity (Pneumocystis carinii [11]): Strong activity
Lung cyst count, % of saline control (Pneumocystis carinii [10]): 0.1%

N=C(N)c1cc(N)cc(OCCCCOc2cc(C(=N)N)ccc2N)c1
Effectiveness (Rattus norvegicus [8]): 1.1
Toxicity (Rattus norvegicus [9]): 0

COc1cc(Cn2ccc3c4c(N)nc(N)nc4nc(O)c32)cc(OC)c1OC
IC50 (Dihydrofolate reductase [6]): 3100 nM

N=C(N)c1ccc2[nH]c(/C=C/c3nc4cc(C(=N)N)ccc4[nH]3)nc2c1
Lung cyst count, % of saline control (Pneumocystis carinii [10]): 3%

COc1cc(NCCCCC(C)N)c2nccc(C)c2c1 (stereo not drawn)
minimal effective concentration (Pneumocystis carinii [4]): 0.2 µM

COc1cc(OCCCCOc2cc(C(=N)N)ccc2OC)cc(C(=N)N)c1
Effectiveness (Rattus norvegicus [8]): 1.2
Toxicity (Rattus norvegicus [9]): 0

N=C(N)c1ccc(OCCCOc2ccc(C(=N)N)cc2)cc1 [PROPAMIDINE]
Effectiveness (Rattus norvegicus [8]): 1.2
Toxicity (Rattus norvegicus [13]): Toxic

CN(Cc1cnc2nc(N)nc(N)c2n1)c1ccc(C(=O)NC(CCC(=O)NC(CCC(=O)NC(CCC(=O)NC(CCC(=O)O)C(=O)O)C(=O)O)C(=O)O)C(=O)O)cc1 (stereo not drawn)
IC50 (Dihydrofolate reductase [6]): 35 nM

N=C(N)c1ccc(OCOc2ccc(C(=N)N)cc2N)c(N)c1
Effectiveness (Rattus norvegicus [8]): 1.1
Toxicity (Rattus norvegicus [9]): 0

CCCCCCOc1c(OC)cc(NC(C)CCCN)c2nccc(C)c12 (stereo not drawn) [WR-242511]
minimal effective concentration (Pneumocystis carinii [4]): 0.2 µM

COc1cc(NC(C)CCCN)c2ncccc2c1 (stereo not drawn) [PRIMAQUINE]
minimal effective concentration (Pneumocystis carinii [4]): 0.02 µM

CCN=NNc1cc(-c2c(N)nc(N)nc2CC)ccc1Cl
IC50 (Dihydrofolate reductase [14]): 18.9 µM
IC50 (Dihydrofolate reductase [6]): 2800 nM
IC50 [15]: 5.5 µM

Nc1nc(N)c2c(ncc3c2ccn3Cc2ccc(Cl)cc2Cl)n1
IC50 (Dihydrofolate reductase [6]): 6 nM

N=C(N)c1cccc(OCOc2cccc(C(=N)N)c2)c1
Effectiveness (Rattus norvegicus [8]): 0.7
Toxicity (Rattus norvegicus [9]): 0

N=C(N)c1ccc2[nH]c(CCCc3nc4cc(C(=N)N)ccc4[nH]3)nc2c1
Lung cyst count, % of saline control (Pneumocystis carinii [10]): 32%

CN(Cc1cnc2cc(N)cc(N)c2n1)c1ccc(C(=O)NC(CCC(=O)O)C(=O)O)c2ccccc12 (stereo not drawn)
IC50 (Dihydrofolate reductase [6]): 190 nM

COc1ccc(OC)c(CCc2sc3nc(N)nc(N)c3c2C)c1
IC50 (Dihydrofolate reductase [6]): 1200 nM

N=C(N)c1ccc2[nH]c(CCc3nc4cc(C(=N)N)ccc4[nH]3)nc2c1
Lung cyst count, % of saline control (Pneumocystis carinii [10]): 1%

N=C(N)c1ccc(OCCCCCOc2ccc(C(=N)N)cc2)cc1 [PENTAMIDINE]
Effectiveness (Rattus norvegicus [8]): 1
Toxicity (Rattus norvegicus [16]): Toxic

COc1cc(C2=NCCN2)ccc1OCCCOc1ccc(C2=NCCN2)cc1
Effectiveness (Rattus norvegicus [8]): 1.3
Toxicity (Rattus norvegicus [9]): 0

N=C(N)c1cccc(OCCCCOc2cccc(C(=N)N)c2)c1
Effectiveness (Rattus norvegicus [8]): 0.6
Toxicity (Rattus norvegicus [9]): 0

COc1ccc(C2=NCCN2)cc1OCCCCOc1cccc(C2=NCCN2)c1
Effectiveness (Rattus norvegicus [8]): 1.7
Toxicity (Rattus norvegicus [16]): Toxic

COc1cc(NC(C)CCCN)c2nccc(C)c2c1 (stereo not drawn)
minimal effective concentration (Pneumocystis carinii [4]): 0.02 µM

COc1cc(NC(C)CCCN)c2nc(C)ccc2c1 (stereo not drawn)
minimal effective concentration (Pneumocystis carinii [4]): 0.03 µM

COc1cc(NC(C)CCCN)c2nccc(C)c2c1Oc1cccc(C(F)(F)F)c1 (stereo not drawn)
minimal effective concentration (Pneumocystis carinii [4]): 0.2 µM
